Our source for the inhibition, Tmax and Cmax values is ChEMBL document CHEMBL5579832, “Design, synthesis, and biological evaluation of pyrido[2,3-d]pyrimidin-7(8H)-one derivatives as potent USP1 inhibitors” (Eur J Med Chem, 2024).

For series [1], the target named is Ubiquitin carboxyl-terminal hydrolase 1/WD repeat-containing protein 48 (Homo sapiens) (UniProt O94782+Q8TAF3). Kind of series: Inhibition of USP1/UAF1 in human Olaparib-resistant MDA-MB-436 cell assessed as increase in Ub-PCNA level at 20 nM incubated for 24 hrs by Western blot analysis. The format is cell-based. Background: A western blot detects proteins with antibodies after separation by electrophoresis.

A short description of series [2]: Tmax in male ICR mouse at 10 mg/kg, po administered as single dose and measured after 24 hrs. Conditions: in vivo. The format is ADME, organism-based.
The target in series [3] is T1, Ubiquitin carboxyl-terminal hydrolase 4 (Homo sapiens) (UniProt Q13107).
T1 sequence (whole entry): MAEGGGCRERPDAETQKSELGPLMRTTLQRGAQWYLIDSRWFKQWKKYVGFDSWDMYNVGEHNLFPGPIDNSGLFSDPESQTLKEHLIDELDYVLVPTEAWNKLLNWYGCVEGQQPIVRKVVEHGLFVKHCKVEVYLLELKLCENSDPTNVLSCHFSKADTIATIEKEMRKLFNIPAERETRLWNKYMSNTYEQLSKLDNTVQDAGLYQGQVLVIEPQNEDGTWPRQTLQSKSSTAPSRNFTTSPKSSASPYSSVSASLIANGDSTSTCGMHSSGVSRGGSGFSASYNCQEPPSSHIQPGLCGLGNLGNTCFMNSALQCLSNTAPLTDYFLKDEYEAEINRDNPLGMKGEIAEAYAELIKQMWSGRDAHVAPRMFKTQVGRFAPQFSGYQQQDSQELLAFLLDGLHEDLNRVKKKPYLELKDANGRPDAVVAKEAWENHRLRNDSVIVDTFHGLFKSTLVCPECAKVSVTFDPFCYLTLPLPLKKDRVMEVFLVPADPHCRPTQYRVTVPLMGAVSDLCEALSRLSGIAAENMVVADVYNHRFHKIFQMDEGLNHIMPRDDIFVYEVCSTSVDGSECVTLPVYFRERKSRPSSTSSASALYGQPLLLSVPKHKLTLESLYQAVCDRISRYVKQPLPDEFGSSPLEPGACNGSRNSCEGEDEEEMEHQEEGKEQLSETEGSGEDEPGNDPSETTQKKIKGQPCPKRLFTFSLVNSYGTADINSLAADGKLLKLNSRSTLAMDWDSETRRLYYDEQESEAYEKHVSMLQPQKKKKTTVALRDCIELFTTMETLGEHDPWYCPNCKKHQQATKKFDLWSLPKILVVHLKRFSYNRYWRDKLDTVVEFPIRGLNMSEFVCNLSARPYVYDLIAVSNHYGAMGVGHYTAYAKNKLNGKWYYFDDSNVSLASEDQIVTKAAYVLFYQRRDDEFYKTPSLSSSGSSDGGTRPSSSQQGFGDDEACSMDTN
The series can be described thus: Inhibition of recombinant human 6His-tagged USP4 using diubiquitin as a substrate at 0 to 10 uM preincubated for 15 mins followed by substrate addition and measured after 2 hrs by SDS-PAGE analysis. The settings on record: dose 0-10 µM, time 135.0 min.

In series [4] the target is T2, Ubiquitin carboxyl-terminal hydrolase 25 (Homo sapiens) (UniProt Q9UHP3).
T2 sequence (whole entry): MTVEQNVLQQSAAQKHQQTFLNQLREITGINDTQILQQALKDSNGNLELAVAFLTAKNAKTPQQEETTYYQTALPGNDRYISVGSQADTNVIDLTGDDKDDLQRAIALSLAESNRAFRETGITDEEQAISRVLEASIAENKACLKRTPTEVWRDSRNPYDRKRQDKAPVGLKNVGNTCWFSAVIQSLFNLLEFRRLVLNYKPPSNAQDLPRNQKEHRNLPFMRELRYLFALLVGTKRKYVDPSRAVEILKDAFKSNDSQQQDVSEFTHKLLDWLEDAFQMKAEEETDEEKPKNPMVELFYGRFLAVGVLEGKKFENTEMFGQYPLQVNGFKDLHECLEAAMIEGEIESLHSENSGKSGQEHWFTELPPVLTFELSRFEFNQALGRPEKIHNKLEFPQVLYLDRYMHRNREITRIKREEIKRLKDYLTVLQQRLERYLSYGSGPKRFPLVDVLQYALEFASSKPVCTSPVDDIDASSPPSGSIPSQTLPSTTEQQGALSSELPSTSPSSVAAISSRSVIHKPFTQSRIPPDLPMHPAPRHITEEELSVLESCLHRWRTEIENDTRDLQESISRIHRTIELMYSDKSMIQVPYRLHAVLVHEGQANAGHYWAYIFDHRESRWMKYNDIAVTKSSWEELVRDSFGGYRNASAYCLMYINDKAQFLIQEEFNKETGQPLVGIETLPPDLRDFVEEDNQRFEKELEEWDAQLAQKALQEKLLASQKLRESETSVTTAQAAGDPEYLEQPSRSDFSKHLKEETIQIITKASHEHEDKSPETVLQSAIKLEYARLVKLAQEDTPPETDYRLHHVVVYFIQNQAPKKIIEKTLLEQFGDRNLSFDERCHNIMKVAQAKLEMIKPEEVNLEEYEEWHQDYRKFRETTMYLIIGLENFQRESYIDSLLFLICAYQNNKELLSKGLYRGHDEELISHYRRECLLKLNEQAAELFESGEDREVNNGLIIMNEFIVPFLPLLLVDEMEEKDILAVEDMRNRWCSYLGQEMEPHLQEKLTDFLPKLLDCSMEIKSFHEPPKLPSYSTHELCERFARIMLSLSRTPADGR
Kind of series: Inhibition of recombinant human 6His-tagged USP25 using diubiquitin as a substrate at 0 to 10 uM preincubated for 15 mins followed by substrate addition and measured after 2 hrs by SDS-PAGE analysis. Conditions: dose 0-10 µM, time 135.0 min.

Series [5] relates to Olaparib-resistant MDA-MB-436. Kind of series: Inhibition of colony formation in human Olaparib-resistant MDA-MB-436 cell at 100 nM measured after 7 days by SRB staining based assay relative to control. The format is functional. The settings on record: Olaparib-resistant MDA-MB-436, 168 h, time 7 day. On the technique in general: The SRB assay estimates cell density from bound dye.

Series [6] in a line: Cmax in male ICR mouse at 10 mg/kg, po administered as single dose and measured after 24 hrs. The format is ADME, organism-based. Conditions: in vivo.
The next series relates to NCI-H1299. The series can be described thus: Inhibition of colony formation in human NCI-H1299 cells at 0.5 uM measured after 7 days by SRB staining based assay relative to control. The format is functional. The settings on record: NCI-H1299, 168 h, time 7 day.
Series [7] has as its target Ubiquitin carboxyl-terminal hydrolase 7 (Homo sapiens) (UniProt Q93009). The series can be described thus: Inhibition of recombinant human 8His-tagged USP7 using diubiquitin as a substrate at 0 to 10 uM preincubated for 15 mins followed by substrate addition and measured after 2 hrs by SDS-PAGE analysis. Conditions: dose 0-10 µM, time 135.0 min.

Activity calls are given as the source filed them. The calls are words filed in the database; no cut-off is given here.

Sequence of Ubiquitin carboxyl-terminal hydrolase 7 (Homo sapiens) (Q93009 whole entry, looked up): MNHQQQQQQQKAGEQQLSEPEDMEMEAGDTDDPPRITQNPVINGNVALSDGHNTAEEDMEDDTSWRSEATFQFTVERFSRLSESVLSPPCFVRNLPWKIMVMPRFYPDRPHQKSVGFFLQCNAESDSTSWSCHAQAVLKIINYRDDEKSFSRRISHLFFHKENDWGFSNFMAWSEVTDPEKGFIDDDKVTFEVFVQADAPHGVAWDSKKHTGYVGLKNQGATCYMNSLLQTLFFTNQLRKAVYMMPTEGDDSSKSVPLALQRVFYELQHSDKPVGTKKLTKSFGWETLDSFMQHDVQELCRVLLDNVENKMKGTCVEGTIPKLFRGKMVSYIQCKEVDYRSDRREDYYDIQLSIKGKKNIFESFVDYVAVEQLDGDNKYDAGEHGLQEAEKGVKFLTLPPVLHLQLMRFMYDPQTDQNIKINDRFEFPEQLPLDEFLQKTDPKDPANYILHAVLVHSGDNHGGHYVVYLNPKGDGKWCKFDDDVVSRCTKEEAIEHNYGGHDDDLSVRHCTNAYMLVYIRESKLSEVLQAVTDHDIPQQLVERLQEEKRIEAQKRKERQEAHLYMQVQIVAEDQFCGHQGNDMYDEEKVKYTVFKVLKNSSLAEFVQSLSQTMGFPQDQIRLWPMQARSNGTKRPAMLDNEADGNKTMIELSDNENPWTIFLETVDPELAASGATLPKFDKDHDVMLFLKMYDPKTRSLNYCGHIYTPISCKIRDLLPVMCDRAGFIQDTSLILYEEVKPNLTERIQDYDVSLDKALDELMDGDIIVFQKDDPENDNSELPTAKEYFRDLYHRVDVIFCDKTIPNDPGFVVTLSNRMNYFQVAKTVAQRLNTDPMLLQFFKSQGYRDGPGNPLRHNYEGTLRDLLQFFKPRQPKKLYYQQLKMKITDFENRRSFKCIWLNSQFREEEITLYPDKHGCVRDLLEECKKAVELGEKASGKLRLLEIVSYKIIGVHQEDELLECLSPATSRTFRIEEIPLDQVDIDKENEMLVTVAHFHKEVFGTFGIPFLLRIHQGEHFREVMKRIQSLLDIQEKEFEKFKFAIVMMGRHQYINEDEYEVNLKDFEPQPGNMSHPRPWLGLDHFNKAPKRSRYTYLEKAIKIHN

By inhibition is commonly meant the change of the read-out against control, counted positive when it falls. One may read the Tmax as the time at which the peak concentration occurs. A word on the Cmax: it is the maximum level reached in the sampled fluid or tissue. On to `COc1ncnc(C2CC2)c1-c1ncc2ccc(=O)n(Cc3ccc(-c4nc(C(F)(F)F)cn4C(C)C)cc3)c2n1`, for which the inhibition entry in series [1] is “Active”. For the same compound, the Tmax in series [2] was determined as 15 min. In addition, the inhibition entry in series [3], in series [4] and in series [7] was “inactive” throughout. The inhibition at 0.1 µM in series [5] worked out at 30%. The Cmax in series [6] amounted to 4780 ng/mL. The compound also came in with an inhibition at 0.5 µM in the series on NCI-H1299 of 70%.
